One assay addresses T1, MU opiate receptor (Cavia porcellus, UniProt A0ACM8Q262).
T1 construct: 3H-DAGO displacement
The assay can be described thus: opiate receptors binding, MU (3H-DAGO, guinea pig brain homogenate). The method, then:
Radio receptor binding to μ and K sites is performed on fresh guinea pig brain homogenate prepared according to Kosterlitz.
(§1) Whole brain without cerebellum is homogenized in 50 mM, Tris-buffer (pH 7.4 at 0° C.) and centrifuged at 49,000×g×10 min.
The pellet is then resuspended in the same buffer, incubated at 37° C. for 45 min. and centrifuged again. 1.9ml of the final homogenate (1:100 in Tris-pH 7.4, 0° C.) is used for the binding assay.
The filters are then dryed, solubilized in Filtercount and the radioactivity monitored. Non specific binding
is determined in the presence of 10-6M Naloxone.

In the next assay the target is T2, KAPPA opiate receptor (Cavia porcellus, UniProt P41144).
T2 construct: fresh guinea pig brain homogenate; from tissue; host or cells: guinea pig whole brain without cerebellum, fresh homogenate
T2 sequence (P41144 whole entry): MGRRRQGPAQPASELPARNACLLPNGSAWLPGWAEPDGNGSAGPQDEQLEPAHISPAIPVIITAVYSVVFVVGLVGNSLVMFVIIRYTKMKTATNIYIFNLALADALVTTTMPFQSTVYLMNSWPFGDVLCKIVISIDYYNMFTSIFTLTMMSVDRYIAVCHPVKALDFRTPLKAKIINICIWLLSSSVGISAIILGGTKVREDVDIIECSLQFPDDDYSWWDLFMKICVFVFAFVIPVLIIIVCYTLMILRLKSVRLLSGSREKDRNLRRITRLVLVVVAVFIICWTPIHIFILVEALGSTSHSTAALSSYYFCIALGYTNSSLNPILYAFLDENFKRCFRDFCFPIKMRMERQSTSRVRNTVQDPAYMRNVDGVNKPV
The assay can be described thus: opiate receptors binding, KAPPA (3H-Ethyl Ketocyclazocine, guinea pig brain homogenate). The method, then: Radio receptor binding to μ and K sites is performed on fresh guinea pig brain homogenate prepared according to Kosterlitz. (1981).
as §1
The pellet is then resuspended in the same buffer, incubated at 37° C. for 45 min. and centrifuged again. 1.9ml of the final homogenate (1:100 in Tris-pH 7.4, 0° C.) is used for the binding assay. Binding to […] sites (Magnan J., 1982) 1 3H [D-Ala2, MePhe4, Gly-o15]Enkephalin (3H-DAGO), an
is determined in the presence of 10-6M Naloxone. 1 Binding to K sites (Magnan J., 1982)
The binding to the K-sites is performed using 3H-Ethyl Ketocyclazocine, a non-selective benzomorphan compound which binds to μ, δ and K-sites, in the presence of 100nM of unlabelled DAGO and 100nM of the enkephalin analogue [DAla^2 -DLeu^5 ]Enkephalin (DADLE), to prevent μ and δ binding respectively.
Final homogenate with solutions of the cold ligand and of the labelled ligand is incubated for 40 min. at 25° C., filtered through Whatman GF/C glass filter discs and washed.
The radioactivity bound to the filters is counted by liquid scintillation spectrophotometry.
The non-specific binding is determined in the presence of 500nM of the benzomorphan non-selective compound Mr 2266.
The equilibrium dissociation constant (KD) and the maximum binding capacity (Bmax) are determined from the analysis of saturation curves, while the inhibition constant (Ki) is determined from the analysis of competition experiments (Hill 1910; Scatchard 1949; Cheng and Prusoff 1973; Gillan et al. 1980).

In assay [1] the test system is mice. In words: tail-flick test in mice. Format: in vivo, mouse (male Charles River, Swiss Strain). As to conditions: Mus musculus, sc, 0.5 h, subcutaneous; calculated as the free base; 30 min pretreatment. On the procedure: (B) Tail-flick test in mice
The methodology employed is based on that described by D'Amour and Smith, J. Pharmacol. Exp. Ther. 72, 74/1941.
Male Charles River mice (Swiss Strain), 22-34g body weight were used. Animals were allowed food and water ad libitum and were randomized into groups of 10 prior to experimentation.
Test compounds were dissolved in either distilled water or distilled water plus 0.1 M AMS and administered by the subcutaneous route in a final volume of 10 ml/Kg. Control animals received 10 ml/kg of the appropriate vehicle alone. Following a pretreatment period of 30 min., the mice were again placed under the heat source and the reaction tine re-determined.
Percentage quantal protection was determined as the number of mice in which the reaction time was doubled compared to pretreatment values, expressed as a percentage of the total number of mice in the group.

Assay [2] relates to mice. In words: p-phenylquinone-induced abdominal writhing test in mice. Format: in vivo, mouse (male Charles River, Swiss Strain). The conditions noted are these: Mus musculus, sc, 20 min; subcutaneous; calculated as the free base; 20 min pretreatment, p-phenylquinone 2 mg/Kg i.p. On the procedure: (A) P-phenylquinone-induced abdominal writhing test in mice
The methodology employed is based on that described by Sigmund et al, Proc. Soc. Exptl. Biol. 95, 729/1957, modified by Milne and Twomey, Agents and Actions, 10, 31/1980.
Male Charles River mice (Swiss Strain), 25-36g body weight, were used. Animals were allowed food and water ad libitum and were randomized into groups of 10 prior to experimentation. Test compounds were dissolved in either distilled water or distilled water plus 0.1 M AMS, and administered by the subcutaneous route in a final volume of 10 ml/Kg. Control animals received 10 ml/Kg of the appropriate vehicle alone. Following a pretreatment period of 20 min., mice were injected intraperitoneally with p-phenylquinone, 2 mg/Kg at 37° C. in a final volume of […]. […] During this period the number of abdominal writhing responses per animal were recorded where writhing consists of an intermittent contraction of the abdomen associated with hind leg extension.
The degree of antinociceptive protection afforded by the test compound was determined as the mean number of writhing responses observed in the treated group (T) expressed as a percentage of the mean number of writhing responses in the control group (C) according to the following formula:
[1-(T/C]×100%=% graded protection

The mark [3] stands for this setting: fresh guinea pig brain homogenate, 25° C., 40 min, read-out: OPIATE RECEPTORS BINDING MU Ki.
Where [4] appears, read: read-out: OPIATE RECEPTORS BINDING MU Ki, fresh guinea pig brain homogenate, 25° C., 40 min.
[5] abbreviates: fresh guinea pig brain homogenate, 3H-Ethyl Ketocyclazocine with 100nM DAGO and 100nM DADLE, 25° C., 40 min, read-out: OPIATE RECEPTORS BINDING KAPPA Ki.

Counter-ions that a name gives are not always drawn. Like-named read-outs stand apart in the source and are kept apart here.

T1 sequence (A0ACM8Q262 1-400): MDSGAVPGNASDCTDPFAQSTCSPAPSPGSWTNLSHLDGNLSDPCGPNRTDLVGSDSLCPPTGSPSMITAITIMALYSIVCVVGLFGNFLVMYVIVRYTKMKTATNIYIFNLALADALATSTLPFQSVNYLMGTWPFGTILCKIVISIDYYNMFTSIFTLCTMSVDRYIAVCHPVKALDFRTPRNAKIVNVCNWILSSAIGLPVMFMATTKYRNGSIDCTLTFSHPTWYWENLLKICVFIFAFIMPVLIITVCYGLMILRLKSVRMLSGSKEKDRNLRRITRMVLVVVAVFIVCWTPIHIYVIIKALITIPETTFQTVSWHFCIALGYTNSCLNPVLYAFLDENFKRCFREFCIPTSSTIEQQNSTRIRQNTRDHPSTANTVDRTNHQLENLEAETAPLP

Turning to `O=C(Cc1ccc(Cl)c(Cl)c1)N1CCc2cccc(Cl)c2C1CN1CCCC1` (stereo not drawn) [Example 27, 1-(pyrrolidin-1-yl)methyl-2-(3,4-dichlorophenyl)acetyl-8-chloro-1,2,3,4-tetrahydroisoquinoline hydrochloride 1/4hydrate], the figures for the Ki on MU opiate receptor (setting [3]) and on KAPPA opiate receptor were 369 nM and 5.46 nM, respectively. The ED50 with mice [1] was 0.092 mg/kg.

Take `CC1Cc2ccccc2C(CN2CCCC2)N1C(=O)Cc1ccc(Cl)c(Cl)c1` (single isomer, unassigned) [Example 42, (-)-1-(pyrrolidin-1-yl)methyl-2-(3,4-dichlorophenyl)acetyl-3-methyl-1,2,3,4-tetrahydroisoquinoline D(-) tartrate]: the ED50 is 0.01 mg/kg with mice [2] and 0.021 mg/kg in the assay with mice [1]. The Ki turned out to be 11.1 nM at MU opiate receptor (setting [4]) and 2.23 nM at KAPPA opiate receptor (setting [5]).

Consider `O=C(Cc1ccc(Cl)c(Cl)c1)N1CCc2c(Cl)cccc2C1CN1CCCC1` (stereo not drawn) [Example 7, 1-(pyrrolidin-1-yl)methyl-2-(3,4-dichlorophenyl)acetyl-5-chloro-1,2,3,4-tetrahydroisoquinoline hydrochloride], for which the Ki was found to be 1580 nM on MU opiate receptor (setting [3]) and 43.6 nM at KAPPA opiate receptor. In addition, in the assay on mice [1], the ED50 was 0.836 mg/kg.

With `C[C@@H]1Cc2ccccc2[C@H](CN2CCCC2)N1C(=O)Cc1ccc(Cl)c(Cl)c1` (relative stereo) [Example 1, 1-(pyrrolidin-1-yl)methyl-2-(3,4-dichlorophenyl)acetyl-3-methyl-1,2,3,4-tetrahydroisoquinoline hydrochloride 1/3 hydrate. Diastereoisomer CIS], the ED50 was 0.021 mg/kg with mice [2] and 0.033 mg/kg in the assay on mice [1]. Also, the Ki is 14.9 nM at MU opiate receptor (setting [4]) and 2.65 nM at KAPPA opiate receptor (setting [5]).

On to `CN(C)CC1c2cccc(O)c2CCN1C(=O)Cc1ccc(Cl)c(Cl)c1` (stereo not drawn) [Example 10, 1-dimethylaminomethyl-2-(3,4-dichlorophenyl) acetyl-5-hydroxy-1,2,3,4-tetrahydroisoquinoline.], for which the Ki at MU opiate receptor (setting [4]) is 3.67 nM; on KAPPA opiate receptor (setting [5]) it was 0.42 nM. Besides, the ED50 with mice [1] was 0.088 mg/kg.

As for `C[C@H]1CN(C(=O)Cc2ccc(Cl)c(Cl)c2)[C@@H](CN2CCCC2)c2ccccc21` (relative stereo) [Example 4, 1-(pyrrolidin-1-yl)methyl-2-(3,4-dichlorophenyl)acetyl-4-methyl-1,2,3,4-tetrahydroisoquinoline hydrochloride. Diastereoisomer CIS], the ED50 with mice [2] was 0.282 mg/kg; in the assay with mice [1], 0.459 mg/kg. Besides, the figures for the Ki at MU opiate receptor (setting [4]) and at KAPPA opiate receptor (setting [5]) were 1150 nM and 14 nM, respectively.

As for `O=C(Cc1ccc(Cl)c(Cl)c1)N1CCc2cc(O)ccc2C1CN1CCCC1` (stereo not drawn) [Example 16, 1-(pyrrolidin-1-yl)methyl-2-(3,4-dichlorophenyl)acetyl-6-hydroxy-1,2,3,4-tetrahydroisoquinoline.], the Ki stood at 102 nM at MU opiate receptor (setting [3]) and 1.54 nM on KAPPA opiate receptor. For the same compound, the ED50 in the assay with mice [1] was 0.24 mg/kg.

Take `C[C@@H]1CN(C(=O)Cc2ccc(Cl)c(Cl)c2)[C@@H](CN2CCCC2)c2ccccc21` (relative stereo) [Example 3, 1-(pyrrolidin-1-yl)methyl-2-(3,4-dichlorophenyl)acetyl-4-methyl-1,2,3,4-tetrahydroisoquinoline hydrochloride. Diastereoisomer TRANS]: the ED50 in the assay with mice [2] was 0.036 mg/kg; with mice [1] it was 0.046 mg/kg. The Ki at MU opiate receptor (setting [4]) worked out at 122 nM; on KAPPA opiate receptor (setting [5]), 4.79 nM.

Turning to `O=C(Cc1ccc(Cl)c(Cl)c1)N1CCc2c(O)cccc2C1CN1CCCC1` (stereo not drawn) [Example 5, 1-(pyrrolidin-1-yl)methyl-2-(3,4-dichlorophenyl)acetyl-5-hydroxy-1,2,3,4-tetrahydroisoquinoline], the ED50 with mice [2] was 0.005 mg/kg; in the assay with mice [1] it was 0.009 mg/kg. For the same compound, the inhibition constant Ki at MU opiate receptor (setting [4]) worked out at 0.69 nM; on KAPPA opiate receptor (setting [5]) it was 0.423 nM.

Turning to `COc1cccc2c1CCN(C(=O)Cc1ccc(Cl)c(Cl)c1)C2CN1CCCC1` (stereo not drawn) [Example 6, 1-(pyrrolidin-1-Yl)methyl-2-(3,4-dichlorophenyl)acetyl-5-methoxy-1,2,3,4-tetrahydroisoquinoline], the ED50 with mice [2] was 0.047 mg/kg; with mice [1] it was 0.054 mg/kg. In addition, the Ki at MU opiate receptor (setting [3]) came out at 277 nM; at KAPPA opiate receptor, 4.01 nM.

The Ki is a measure of affinity in units of concentration, obtained from inhibition or displacement. The term ED50 denotes the dose at which the effect has come halfway, by size or by number of responders.

The values above are taken from patent US4954509A, “Isoquinoline derivatives and their use as analgesics” (Dr. Lo. Zambeletti S.p.A., priority 1988, dated 1990).
